Biological target: T1, bPARG (construct C, 75-kDa carboxyl-terminal region) expressed in E. coli (Bos taurus, UniProt O02776)
T1 construct: construct C contained only the 75-kDa carboxyl-terminal region of the PARG, which predicted a fusion protein of approximately 79 kDa; made in house; host or cells: E. coli (pTrcHis expression plasmid; supernatant of crude cell extract)
Test: PARG activity, thin layer chromatography assay measuring release of [32P]ADP-ribose from [32P]ADP-ribose polymers
Format: biochemical, bovine
Conditions: 167 μm inhibitor; extract of E. coli strain containing construct C, 5 h after induction by IPTG (FIG. 6, bar 6 vs bar 5)
Protocol: For expression experiments, bacterial cultures were grown at 37° C. in 1% Bacto-tryptone, 0.5% yeast extract, and 0.5% NaCl to a density of approximately 0.6 A600/ml and were induced with 1 mM isopropyl-β-D-thiogalactoside (IPTG). Cells were-collected by centrifugation, and crude extracts were prepared by sonication (10 A600/ml) in 10 mM sodium phosphate buffer, pH 7.2, 150 mM NaCl, 0.5 mg/ml lysozyme, 0.1 mg/ml phenylmethylsulfonyl fluoride, 1 mM EDTA, 0.7 μg/ml pepstatin A, 0.5 μg/ml leupeptin, and 1 μg/ml aprotinin. Cell extracts were subjected to centrifugation, and the supernatant fraction was used for assay. PARG assay conditions were as described previously (52). Following incubations, portions of reaction mixture were analyzed by thin layer chromatography or subjected to anion exchange HPLC.
Using a thin layer chromatography assay that measures release of [^32P]ADP-ribose from [^32P]ADP-ribose polymers (53), PARG activity was detected in extracts from cells transformed by each of the constructs. […] Reaction mixtures contained approximately 15,000 cpm of [^32P]ADP-ribose polymers, and the cpm shown represent ADP-ribose released from the ADP-ribose polymers. […] No activity was detected in cells transformed with the empty vector, but activity was detectable without induction by IPTG, indicating a leaky lac promoter.

T1 sequence (O02776 322-977 limits assumed): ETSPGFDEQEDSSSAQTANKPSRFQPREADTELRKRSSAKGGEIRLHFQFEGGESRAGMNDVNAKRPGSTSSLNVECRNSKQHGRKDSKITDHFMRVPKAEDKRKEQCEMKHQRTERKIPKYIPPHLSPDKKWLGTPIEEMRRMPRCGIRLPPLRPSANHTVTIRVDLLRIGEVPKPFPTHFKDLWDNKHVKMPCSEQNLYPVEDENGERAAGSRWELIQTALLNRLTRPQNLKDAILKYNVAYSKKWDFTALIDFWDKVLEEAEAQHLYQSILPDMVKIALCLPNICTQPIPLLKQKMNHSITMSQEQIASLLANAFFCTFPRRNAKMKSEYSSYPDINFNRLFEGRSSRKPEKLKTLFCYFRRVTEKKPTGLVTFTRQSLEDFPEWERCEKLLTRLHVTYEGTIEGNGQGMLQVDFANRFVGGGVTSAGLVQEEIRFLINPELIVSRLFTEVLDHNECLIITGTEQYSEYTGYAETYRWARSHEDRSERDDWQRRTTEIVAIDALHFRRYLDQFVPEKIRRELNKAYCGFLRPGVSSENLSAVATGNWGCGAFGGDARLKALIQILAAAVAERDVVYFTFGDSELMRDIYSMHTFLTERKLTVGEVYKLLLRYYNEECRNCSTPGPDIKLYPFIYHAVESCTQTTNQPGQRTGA

In the case of Nc1ncnc2c1ncn2[C@@H]1O[C@H](COP(=O)(O)OP(=O)(O)OC[C@H]2NC[C@H](O)[C@@H]2O)[C@@H](O)[C@H]1O [ADP-hydroxymethylpyrrolidine diol], the “enzymatic activity (ADP-ribose released from ADP-ribose polymers)” value is reported as “strongly inhibited”.
